Experiment [1] concerns the target Dual specificity protein kinase CLK4 (Homo sapiens, UniProt Q9HAZ1).
In experiment [2] the target is T1, Interleukin-1 receptor-associated kinase 4 (Homo sapiens, UniProt Q9NWZ3).
T1 sequence (Q9NWZ3 whole entry): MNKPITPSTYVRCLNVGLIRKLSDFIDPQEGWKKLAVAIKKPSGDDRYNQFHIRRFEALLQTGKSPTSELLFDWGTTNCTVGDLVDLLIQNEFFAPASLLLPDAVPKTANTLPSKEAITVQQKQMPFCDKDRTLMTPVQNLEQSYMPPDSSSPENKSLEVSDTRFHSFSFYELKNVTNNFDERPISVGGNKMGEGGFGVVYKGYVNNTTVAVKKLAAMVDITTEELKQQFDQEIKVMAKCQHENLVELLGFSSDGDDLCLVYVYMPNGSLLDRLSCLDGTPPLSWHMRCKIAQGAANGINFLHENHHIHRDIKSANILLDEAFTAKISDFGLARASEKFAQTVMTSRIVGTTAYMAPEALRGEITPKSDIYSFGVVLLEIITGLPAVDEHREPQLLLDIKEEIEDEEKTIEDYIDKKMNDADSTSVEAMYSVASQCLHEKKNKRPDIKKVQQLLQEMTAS

Experiment [3] deals with T2, Phosphatidylinositol 5-phosphate 4-kinase type-2 alpha (Homo sapiens, UniProt P48426).
T2 sequence (P48426 whole entry): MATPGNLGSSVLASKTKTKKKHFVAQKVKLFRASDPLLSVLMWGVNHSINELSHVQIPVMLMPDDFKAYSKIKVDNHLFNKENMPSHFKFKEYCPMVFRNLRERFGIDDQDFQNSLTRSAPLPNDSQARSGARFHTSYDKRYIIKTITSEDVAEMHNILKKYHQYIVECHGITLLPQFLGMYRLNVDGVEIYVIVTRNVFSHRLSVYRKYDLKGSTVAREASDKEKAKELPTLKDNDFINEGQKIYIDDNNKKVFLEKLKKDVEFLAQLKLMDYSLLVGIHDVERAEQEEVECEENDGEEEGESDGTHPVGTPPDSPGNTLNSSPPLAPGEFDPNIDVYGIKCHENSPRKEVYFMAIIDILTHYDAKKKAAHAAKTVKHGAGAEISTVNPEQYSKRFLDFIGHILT

Experiment [4] concerns the target T3, Protein kinase C zeta type (Homo sapiens, UniProt Q05513).
T3 sequence (Q05513 whole entry): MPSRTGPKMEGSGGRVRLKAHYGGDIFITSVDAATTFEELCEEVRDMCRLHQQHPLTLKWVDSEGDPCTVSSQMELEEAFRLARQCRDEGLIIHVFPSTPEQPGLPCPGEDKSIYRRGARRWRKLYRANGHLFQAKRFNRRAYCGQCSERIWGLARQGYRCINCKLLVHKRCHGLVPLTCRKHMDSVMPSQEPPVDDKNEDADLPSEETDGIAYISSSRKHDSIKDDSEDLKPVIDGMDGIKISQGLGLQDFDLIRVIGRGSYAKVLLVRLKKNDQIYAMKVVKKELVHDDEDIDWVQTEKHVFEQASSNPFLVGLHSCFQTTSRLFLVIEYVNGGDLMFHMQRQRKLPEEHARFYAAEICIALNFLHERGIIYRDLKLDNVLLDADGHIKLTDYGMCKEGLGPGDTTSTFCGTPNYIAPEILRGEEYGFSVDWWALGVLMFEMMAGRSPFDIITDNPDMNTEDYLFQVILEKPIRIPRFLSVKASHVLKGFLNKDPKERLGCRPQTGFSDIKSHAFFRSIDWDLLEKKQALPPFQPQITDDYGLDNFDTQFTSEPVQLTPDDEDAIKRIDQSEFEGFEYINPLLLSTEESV

The next experiment addresses T4, ADP/ATP translocase 3 (Homo sapiens, UniProt P12236).
T4 sequence (P12236 whole entry): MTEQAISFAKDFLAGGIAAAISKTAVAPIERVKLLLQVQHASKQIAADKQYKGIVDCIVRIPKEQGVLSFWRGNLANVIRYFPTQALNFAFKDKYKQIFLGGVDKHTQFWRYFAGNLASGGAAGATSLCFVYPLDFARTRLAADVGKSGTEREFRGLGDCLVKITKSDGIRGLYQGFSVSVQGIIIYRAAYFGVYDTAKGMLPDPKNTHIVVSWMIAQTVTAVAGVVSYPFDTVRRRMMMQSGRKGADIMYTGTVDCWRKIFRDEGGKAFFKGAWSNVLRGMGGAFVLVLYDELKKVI

Experiment [5] concerns the target Dual specificity testis-specific protein kinase 2 (Homo sapiens, UniProt Q96S53).

For 23 molecules, Kd results are on record in ChEMBL document CHEMBL3991601, “The target landscape of clinical kinase drugs” (Science, 2017).

Calls of active or inactive are those of the source.

The Kd is a measure of binding affinity in units of concentration.
Further: in the data inactive means no Kd found up to 30 µM.

Sequence of Dual specificity protein kinase CLK4 (Q9HAZ1 whole entry): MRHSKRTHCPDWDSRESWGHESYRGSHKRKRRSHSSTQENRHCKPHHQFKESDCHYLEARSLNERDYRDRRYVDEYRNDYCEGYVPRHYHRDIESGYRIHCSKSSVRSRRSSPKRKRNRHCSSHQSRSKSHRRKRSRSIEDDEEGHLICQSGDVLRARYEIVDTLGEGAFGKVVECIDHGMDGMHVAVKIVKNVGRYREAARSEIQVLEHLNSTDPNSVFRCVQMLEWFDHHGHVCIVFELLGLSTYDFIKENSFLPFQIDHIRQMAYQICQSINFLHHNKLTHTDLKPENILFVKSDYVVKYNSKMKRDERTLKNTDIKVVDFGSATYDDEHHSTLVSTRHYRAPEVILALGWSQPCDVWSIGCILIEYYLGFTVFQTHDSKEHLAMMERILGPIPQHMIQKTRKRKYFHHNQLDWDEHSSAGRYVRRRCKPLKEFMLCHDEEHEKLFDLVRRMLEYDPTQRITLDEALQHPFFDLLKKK
Sequence of Dual specificity testis-specific protein kinase 2 (Q96S53 whole entry): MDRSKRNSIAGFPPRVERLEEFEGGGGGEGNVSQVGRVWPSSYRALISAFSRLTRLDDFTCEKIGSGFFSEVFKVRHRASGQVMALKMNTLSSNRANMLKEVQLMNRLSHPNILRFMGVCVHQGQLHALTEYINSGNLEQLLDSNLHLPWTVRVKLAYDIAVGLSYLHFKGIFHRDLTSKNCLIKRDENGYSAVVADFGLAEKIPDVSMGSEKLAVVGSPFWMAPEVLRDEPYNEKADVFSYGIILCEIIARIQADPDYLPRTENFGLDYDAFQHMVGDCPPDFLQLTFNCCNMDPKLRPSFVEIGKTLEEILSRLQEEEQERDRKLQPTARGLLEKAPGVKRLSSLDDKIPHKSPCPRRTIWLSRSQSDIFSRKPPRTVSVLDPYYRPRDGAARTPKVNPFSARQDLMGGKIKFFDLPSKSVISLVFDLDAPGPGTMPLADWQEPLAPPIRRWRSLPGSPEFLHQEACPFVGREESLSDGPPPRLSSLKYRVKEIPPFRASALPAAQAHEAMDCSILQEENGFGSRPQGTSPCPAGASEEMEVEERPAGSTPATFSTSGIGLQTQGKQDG

In the case of `COc1cc(OC)c(/C=C/S(=O)(=O)Cc2ccc(OC)c(NCC(=O)O)c2)c(OC)c1` [RIGOSERTIB], the Kd (in experiment [1]; in experiment [2]; in experiment [3]; in experiment [4]; on ADP/ATP translocase 3; in experiment [5]) was > 30 µM (inactive) each time.

For the molecule `CNC(=O)CN1CCC(Oc2cc3c(Nc4cccc(Cl)c4F)ncnc3cc2OC)CC1` [SAPITINIB], the Kd (in experiment [1]; in experiment [2]; in experiment [3]; in experiment [4]; at ADP/ATP translocase 3; in experiment [5]) was > 30 µM (inactive) each time.

With `Cc1ccc(S(=O)(=O)Nc2nc3ccccc3nc2Nc2ccc3nsnc3c2)cc1`, the Kd (in experiment [1]; in experiment [2]; in experiment [3]; in experiment [4]; on ADP/ATP translocase 3) was > 30 µM (inactive) each time.

In the case of `Cc1ccc(NC(=O)c2ccc(CN3CC[C@H](N(C)C)C3)c(C(F)(F)F)c2)cc1Nc1nccc(-c2cncnc2)n1` [BAFETINIB], the Kd (in experiment [1]; in experiment [2]; in experiment [3]; in experiment [4]; on ADP/ATP translocase 3; in experiment [5]) was > 30 µM (inactive) throughout.

On to `Nc1nc(N)c2nc(-c3cccc(O)c3)c(-c3cccc(O)c3)nc2n1` [TG100-115], for which the Kd in experiment [3] was 7.02 µM; in experiment [4], > 30 µM (inactive); at ADP/ATP translocase 3 it was > 30 µM (inactive); in experiment [5], > 30 µM (inactive).

As for `CN1CCN(c2ccc3nc(-c4c(N)c5c(F)cccc5[nH]c4=O)[nH]c3c2)CC1` [DOVITINIB], the Kd (in experiment [3]; in experiment [4]; on ADP/ATP translocase 3; in experiment [5]) was > 30 µM (inactive) throughout.

On to `COc1ccc(-c2ccc3c(N4CCOC[C@@H]4C)nc(N4CCOC[C@@H]4C)nc3n2)cc1CO` [AZD-8055], for which the Kd (in experiment [1]; in experiment [2]; in experiment [3]; in experiment [4]; on ADP/ATP translocase 3; in experiment [5]) was > 30 µM (inactive) in each case.

For `O=C(O)[C@]1(Cc2cccc(Nc3nccs3)n2)CC[C@@H](Oc2cccc(Cl)c2F)CC1` [MK-5108], the Kd (in experiment [1]; in experiment [2]; in experiment [3]; in experiment [4]; at ADP/ATP translocase 3) was > 30 µM (inactive) throughout.

Consider `CN1CCC(CNc2ccc3ncc(-c4cccc(OC(F)(F)F)c4)n3n2)CC1` [SGI-1776], for which the Kd (in experiment [2]; in experiment [3]; in experiment [4]; on ADP/ATP translocase 3; in experiment [5]) was > 30 µM (inactive) throughout.

Turning to `CCc1cnn2c(NCc3ccc[n+]([O-])c3)cc(N3CCCC[C@H]3CCO)nc12` [DINACICLIB], the Kd (in experiment [2]; in experiment [3]; in experiment [4]; on ADP/ATP translocase 3; in experiment [5]) was > 30 µM (inactive) throughout.

On to `OCCn1cc(-c2cnc3nnn(Cc4ccc5ncccc5c4)c3n2)cn1` [PF-04217903], for which the Kd (in experiment [2]; in experiment [3]; in experiment [4]; at ADP/ATP translocase 3) was > 30 µM (inactive) each time.

For the molecule `Cc1cc([C@@H](C)Nc2ccccc2C(=O)O)c2nc(N3CCOCC3)cc(=O)n2c1` [AZD-6482], the Kd (in experiment [1]; in experiment [2]; in experiment [4]; at ADP/ATP translocase 3; in experiment [5]) was > 30 µM (inactive) throughout.

For the molecule `COc1cc(CCc2cc(NC(=O)c3ccc(N4C[C@@H](C)N[C@@H](C)C4)cc3)n[nH]2)cc(OC)c1` [AZD-4547], the Kd (in experiment [1]; in experiment [2]; in experiment [3]; in experiment [4]; on ADP/ATP translocase 3) was > 30 µM (inactive) in each case.

Turning to `CNC(=O)c1ccc(-c2cnc3ncc(Cc4ccc5ncccc5c4)n3n2)cc1F` [CAPMATINIB], the Kd (in experiment [2]; in experiment [3]; in experiment [4]; at ADP/ATP translocase 3) was > 30 µM (inactive) throughout.

`O=C(Nc1ccc(-c2ccnc(Nc3ccc(N4CCOCC4)cc3)n2)cc1)C1CCCN1` (stereo not drawn) [XL-019]: the Kd (in experiment [1]; in experiment [2]; in experiment [4]; at ADP/ATP translocase 3) was > 30 µM (inactive) in each case.

`CCn1c(-c2nonc2N)nc2c(C#CC(C)(C)O)ncc(OC[C@H]3CCCNC3)c21` [GSK-690693]: the Kd (in experiment [4]; on ADP/ATP translocase 3) was > 30 µM (inactive) in each case.

For the molecule `CN1CCC(COc2cnc(-c3cccc(Cn4nc(-c5cccc(C#N)c5)ccc4=O)c3)nc2)CC1` [TEPOTINIB], the Kd (in experiment [2]; in experiment [3]; in experiment [4]; at ADP/ATP translocase 3; in experiment [5]) was > 30 µM (inactive) each time.

With `CCn1c(=O)c(-c2cc[nH]n2)cc2c(C)nc(N)nc21` [VOXTALISIB], the Kd (in experiment [2]; in experiment [3]; in experiment [4]; at ADP/ATP translocase 3) was > 30 µM (inactive) in each case.

On to `Cc1cn(-c2cc(NC(=O)c3ccc(C)c(Nc4nccc(-c5cccnc5)n4)c3)cc(C(F)(F)F)c2)cn1` [NILOTINIB], for which the Kd (in experiment [3]; in experiment [4]; on ADP/ATP translocase 3; in experiment [5]) was > 30 µM (inactive) in each case.

Turning to `Cc1cc2c(F)c(Oc3ncnn4cc(OC[C@@H](C)OC(=O)[C@H](C)N)c(C)c34)ccc2[nH]1` [BRIVANIB ALANINATE], the Kd (in experiment [2]; in experiment [3]; in experiment [4]; on ADP/ATP translocase 3; in experiment [5]) was > 30 µM (inactive) each time.

As to `Cc1cc(-c2cc(O)ccc2Cl)cc2nnc(Nc3ccc(OCCN4CCCC4)cc3)nc12`, the Kd (in experiment [2]; in experiment [3]; in experiment [4]; on ADP/ATP translocase 3; in experiment [5]) was > 30 µM (inactive) each time.

With `C=CC(=O)N1CCC(Oc2cc3c(Nc4ccc(Cl)c(Cl)c4F)ncnc3cc2OC)CC1` [POZIOTINIB], the Kd (in experiment [2]; in experiment [4]; on ADP/ATP translocase 3; in experiment [5]) was > 30 µM (inactive) throughout.

In the case of `O=C1NC(=O)/C(=C/c2ccc3nccc(-c4ccncc4)c3c2)S1` [GSK-1059615], the Kd (in experiment [2]; in experiment [3]; in experiment [4]; on ADP/ATP translocase 3; in experiment [5]) was > 30 µM (inactive) throughout.
